Test results: PubChem BioAssay AID330 (DTP/NCI, 2004)
Several values for one entry are separate records, joined by “and”; a condition that tells them apart may be missing. Equal values may be shown once. Inconclusive results and toxic doses are left out.

Test system: P388 leukemia ip, CD2F1 mice, survival T/C
Assay: NCI In Vivo Anticancer Drug Screen. Data for tumor model P388 Leukemia (intraperitoneal) in CD2F1 (CDF1) mice
Settings: endpoint: median survival time, higher = longer survival
How it was run: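 Mice carrying the transplanted tumor received test compound or vehicle. Survival was recorded in each group, and the value is the treated-group measurement divided by that of the vehicle-treated control group.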

[1] = dose: 30.0 mg/kg/injection, schedule: Q01DX005 (ip), vehicle: Klucel (hydroxypropylcellulose) (HPC)
[2] = dose: 60.0 mg/kg/injection, schedule: Q01DX005 (ip), vehicle: Klucel (hydroxypropylcellulose) (HPC)
[3] = dose: 100.0 mg/kg/injection, schedule: Q04DX003 (ip), vehicle: saline with Tween-80
[4] = dose: 400.0 mg/kg/injection, schedule: Q04DX003 (ip), vehicle: saline with Tween-80
[5] = dose: 50.0 mg/kg/injection, schedule: Q01DX009 (ip), vehicle: saline
[6] = dose: 200.0 mg/kg/injection, schedule: Q01DX009 (ip), vehicle: saline
[7] = dose: 50.0 mg/kg/injection, schedule: Q01DX009 (ip), vehicle: saline with Tween-80
[8] = dose: 100.0 mg/kg/injection, schedule: Q01DX009 (ip), vehicle: saline with Tween-80
[9] = dose: 200.0 mg/kg/injection, schedule: Q01DX009 (ip), vehicle: saline with Tween-80
[10] = dose: 6.25 mg/kg/injection, schedule: Q01DX009 (ip), vehicle: Klucel (hydroxypropylcellulose) (HPC)
[11] = dose: 12.5 mg/kg/injection, schedule: Q01DX009 (ip), vehicle: Klucel (hydroxypropylcellulose) (HPC)
[12] = dose: 25.0 mg/kg/injection, schedule: Q01DX009 (ip), vehicle: Klucel (hydroxypropylcellulose) (HPC)
[13] = dose: 50.0 mg/kg/injection, schedule: Q01DX009 (ip), vehicle: Klucel (hydroxypropylcellulose) (HPC)
[14] = dose: 100.0 mg/kg/injection, schedule: Q01DX009 (ip), vehicle: Klucel (hydroxypropylcellulose) (HPC)
[15] = dose: 50.0 mg/kg/injection, schedule: Q01DX005 (ip), vehicle: saline with Tween-80
[16] = dose: 100.0 mg/kg/injection, schedule: Q01DX005 (ip), vehicle: saline with Tween-80
[17] = dose: 100.0 mg/kg/injection, schedule: Q04DX002 (ip), vehicle: Klucel (hydroxypropylcellulose) (HPC)
[18] = dose: 200.0 mg/kg/injection, schedule: Q01DX005 (ip), vehicle: saline with Tween-80

For `ClC(Cl)(Cl)CN1CCCCC1Cc1ccccc1` (stereo unspecified), the T/C [1] was 101 % of control and the T/C [2] was 100 % of control.
In the case of `COc1ccc2nc(N=Nc3ccc(N4CCOCC4)cc3C)sc2c1`, the T/C (dose: 100.0 mg/kg/injection, schedule: Q01DX001 (ip), vehicle: Klucel (hydroxypropylcellulose) (HPC)) is reported as 86 % of control, the T/C (dose: 200.0 mg/kg/injection, schedule: Q01DX001 (ip), vehicle: Klucel (hydroxypropylcellulose) (HPC)) is reported as 86 % of control and the T/C (dose: 400.0 mg/kg/injection, schedule: Q01DX001 (ip), vehicle: Klucel (hydroxypropylcellulose) (HPC)) is reported as 88 % of control.
`COC(=O)c1nc2nnc(NC(=O)Nc3ccc(Cl)cc3)n2c(-c2ccccc2)c1C` was tested, and the T/C (dose: 60.0 mg/kg/injection, schedule: Q01DX005 (ip), vehicle: saline with Tween-80) was 96 % of control and the T/C (dose: 120.0 mg/kg/injection, schedule: Q01DX005 (ip), vehicle: saline with Tween-80) was 95 % of control.
For `CCOC(=S)c1cc(C(=S)OCC)cc(C(C)(C)C)c1`, the T/C [3] was 103 % of control, the T/C (dose: 200.0 mg/kg/injection, schedule: Q04DX003 (ip), vehicle: saline with Tween-80) was 108 % of control and the T/C [4] was 113 % of control.
`C=C1CCC2C(C)(CCC(OCCCCC)C2(C)C(=O)OC)C1CCc1ccoc1` (stereo unspecified) was tested, and the T/C (dose: 8.25 mg/kg/injection, schedule: Q01DX005 (ip), vehicle: Klucel + Tween-80) was 100 % of control, the T/C (dose: 16.5 mg/kg/injection, schedule: Q01DX005 (ip), vehicle: Klucel + Tween-80) was 102 % of control and the T/C (dose: 33.0 mg/kg/injection, schedule: Q01DX005 (ip), vehicle: Klucel + Tween-80) was 100 % of control. For the same compound, the T/C (dose: 66.0 mg/kg/injection, schedule: Q01DX005 (ip), vehicle: Klucel + Tween-80) was 94 % of control.
In the case of `N#C/C(=C\c1cccnc1)C(N)=S`, the T/C [5] is reported as 101 % of control, the T/C (dose: 100.0 mg/kg/injection, schedule: Q01DX009 (ip), vehicle: saline) is reported as 88 % of control and the T/C [6] is reported as 104 % of control.
In the case of `Cc1ccc(C)c(C2NC(=O)c3ccccc3N2)c1` (stereo unspecified), the T/C (dose: 25.0 mg/kg/injection, schedule: Q01DX009 (ip), vehicle: saline with Tween-80) is reported as 104 % of control, the T/C [7] is reported as 104 % of control and the T/C [8] is reported as 101 % of control. For the same compound, the T/C [9] was 112 % of control.
With `Cc1cc(O)c(N=Nc2ccc(C(=O)O)cc2)cc1C` the T/C [8] was 100 % of control, the T/C [3] was 90 % of control and the T/C [9] was 95 % of control. The T/C (dose: 400.0 mg/kg/injection, schedule: Q01DX009 (ip), vehicle: saline with Tween-80) was 95 % of control and the T/C [4] was 90 % of control.
For `O=[N+]([O-])c1cccnc1S(=O)(=O)c1ncccn1`, the T/C [10] was 100 % of control, the T/C [11] was 110 % of control and the T/C [12] was 96 % of control.
`CC(C)(CO)N(CCO)CCO` was tested, and the T/C (dose: 50.0 mg/kg/injection, schedule: Q01DX005 (ip), vehicle: saline) was 106 % of control, the T/C (dose: 100.0 mg/kg/injection, schedule: Q01DX005 (ip), vehicle: saline) was 106 % of control and the T/C (dose: 200.0 mg/kg/injection, schedule: Q01DX005 (ip), vehicle: saline) was 106 % of control.
`O=C1CC2(CCCCC2)C(=O)N1c1ccc(S(=O)(=O)NC(=S)Nc2ccc(Br)cc2)cc1` was tested, and the T/C [13] was 98 % of control, the T/C [14] was 95 % of control and the T/C (dose: 200.0 mg/kg/injection, schedule: Q01DX009 (ip), vehicle: Klucel (hydroxypropylcellulose) (HPC)) was 104 % of control.
In the case of `CN(C)C1C2(C)CCC(C2)C1(C)C` (stereo unspecified), the T/C [15] is reported as 103 % of control and the T/C [16] is reported as 102 % of control.
`NC(=NCc1ccc2c(c1)OCO2)N[N+](=O)[O-]` was tested, and the T/C (dose: 50.0 mg/kg/injection, schedule: Q01DX005 (ip), vehicle: Klucel (hydroxypropylcellulose) (HPC)) was 104 % of control, the T/C (dose: 100.0 mg/kg/injection, schedule: Q01DX005 (ip), vehicle: Klucel (hydroxypropylcellulose) (HPC)) was 100 % of control and the T/C (dose: 200.0 mg/kg/injection, schedule: Q01DX005 (ip), vehicle: Klucel (hydroxypropylcellulose) (HPC)) was 96 % of control.
For `O=C(O)c1cc(CCCC(=O)c2cc(C(=O)O)c(O)c3ccccc23)c2ccccc2c1O`, the T/C [17] was 90 % of control.
In the case of `N=C(N)SCc1cccc2c(=O)cc(-c3ccccc3)oc12`, the T/C (dose: 25.0 mg/kg/injection, schedule: Q01DX009 (ip), vehicle: saline) is reported as 118 % of control, the T/C [5] is reported as 86 % of control and 93 % of control and the T/C [6] is reported as 113 % of control and 122 % of control.
With `CN(C(=[Se])[Se]C(=[Se])N(C)C1CCCCC1)C1CCCCC1` the T/C (dose: 15.0 mg/kg/injection, schedule: Q01DX005 (ip), vehicle: Klucel (hydroxypropylcellulose) (HPC)) was 95 % of control, the T/C [1] was 96 % of control and the T/C [2] was 100 % of control and 93 % of control. For the same compound, the T/C (dose: 120.0 mg/kg/injection, schedule: Q01DX005 (ip), vehicle: Klucel (hydroxypropylcellulose) (HPC)) was 99 % of control.
For `COc1cccc2c1C(CO)N1C(C#N)C3CC(C(=O)O)C(C1C2)N3C` (stereo unspecified), the T/C (dose: 0.78 mg/kg/injection, schedule: Q01DX005 (ip), vehicle: suspension in saline) was 116 % of control and 122 % of control, the T/C (dose: 1.56 mg/kg/injection, schedule: Q01DX005 (ip), vehicle: suspension in saline) was 122 % of control and the T/C (dose: 3.12 mg/kg/injection, schedule: Q01DX005 (ip), vehicle: saline) was 150 % of control. For the same compound, the T/C (dose: 6.25 mg/kg/injection, schedule: Q01DX005 (ip), vehicle: saline) was 157 % of control, the T/C (dose: 6.25 mg/kg/injection, schedule: Q01DX005 (ip), vehicle: suspension in saline) was 159 % of control and the T/C (dose: 12.5 mg/kg/injection, schedule: Q01DX005 (ip), vehicle: saline) was 160 % of control. For the same compound, the T/C (dose: 12.5 mg/kg/injection, schedule: Q01DX005 (ip), vehicle: suspension in saline) was 150 % of control and 178 % of control and 186 % of control and the T/C (dose: 25.0 mg/kg/injection, schedule: Q01DX005 (ip), vehicle: saline) was 200 % of control.
`Cc1cc2cccc(Br)c(=O)c2o1` was tested, and the T/C (dose: 6.25 mg/kg/injection, schedule: Q01DX001 (ip), vehicle: saline with Tween-80) was 95 % of control, the T/C (dose: 12.5 mg/kg/injection, schedule: Q01DX001 (ip), vehicle: saline with Tween-80) was 100 % of control and the T/C (dose: 25.0 mg/kg/injection, schedule: Q01DX001 (ip), vehicle: saline with Tween-80) was 104 % of control.
`N#C/C(=N\NC(=O)c1cccnc1)c1ccc(Cl)cc1` was tested, and the T/C [15] was 92 % of control, the T/C [16] was 92 % of control and the T/C [18] was 101 % of control.
With `COC(C)C(Cl)C(=O)NN=C(c1ccccc1)c1ccccc1` (stereo unspecified) the T/C [7] was 108 % of control, the T/C [8] was 105 % of control and the T/C [9] was 99 % of control.
In the case of `O=C1CSC(c2ccccc2Cl)N1c1n[nH]c(=S)s1` (stereo unspecified), the T/C [17] is reported as 98 % of control, the T/C (dose: 200.0 mg/kg/injection, schedule: Q04DX002 (ip), vehicle: Klucel (hydroxypropylcellulose) (HPC)) is reported as 100 % of control and the T/C (dose: 400.0 mg/kg/injection, schedule: Q04DX002 (ip), vehicle: Klucel (hydroxypropylcellulose) (HPC)) is reported as 97 % of control.
With `c1ccc(-c2nc(-c3ccccn3)cc3ccccc23)cc1` the T/C (dose: 100.0 mg/kg/injection, schedule: Q01DX001 (ip), vehicle: saline with Tween-80) was 91 % of control, the T/C (dose: 200.0 mg/kg/injection, schedule: Q01DX001 (ip), vehicle: saline with Tween-80) was 92 % of control and the T/C (dose: 400.0 mg/kg/injection, schedule: Q01DX001 (ip), vehicle: saline with Tween-80) was 112 % of control.
In the case of `Cc1ccc(C(=O)NC2C(=O)NC(C(C)C)C(=O)N3CCCC3C(=O)N(C)CC(=O)N(C)C(C(C)C)C(=O)OC2C)c2c1Oc1c(c(C(=O)NC3C(=O)NC(C(C)C)C(=O)N4CCCC4C(=O)N(C)CC(=O)N(C)C(C(C)C)C(=O)OC3C)c3nc(-c4ccccc4)c(=O)oc3c1C)N2` (stereo unspecified), the T/C (dose: 0.13 mg/kg/injection, schedule: Q01DX005 (ip), vehicle: water) is reported as 168 % of control, the T/C (dose: 0.25 mg/kg/injection, schedule: Q01DX005 (ip), vehicle: water) is reported as 181 % of control and 240 % of control and the T/C (dose: 1.0 mg/kg/injection, schedule: Q01DX005 (ip), vehicle: water) is reported as 246 % of control.
`NNC(=O)C(=O)n1ccnc1` was tested, and the T/C [15] was 95 % of control, the T/C [16] was 102 % of control and the T/C [18] was 101 % of control.
With `COc1cc2c3cc1Oc1c(OC)c(OC)cc4c1C(Cc1ccc(cc1)Oc1cc(ccc1O)CC3N(C)CC2)N(C)CC4` (stereo unspecified) the T/C [11] was 97 % of control, the T/C [12] was 97 % of control and the T/C [13] was 94 % of control. For the same compound, the T/C [14] was 105 % of control.
